In patent publication US5426103A, “Certain macrocyclic lactam derivatives” (Ciba-Geigy Corporation, priority 1993, dated 1995):

Tests used:
plasma ANF = test: effect on rat plasma ANF concentration in ANF-infused conscious rats; format: in vivo, rat (male Sprague-Dawley); conditions: about 1-10 mg/kg p.o., ANF infusion 450 ng/kg/min i.v.
Procedure: The effect of the compounds of the invention on rat plasma ANF concentration can be determined as follows:
Male Sprague-Dawley rats (275-390 g) are anesthetized with ketamine (150 mg/kg)/acepromazine (10%) and instrumented with catheters in the femoral artery and vein to obtain blood samples and infuse ANF, respectively. The rats are tethered with a swivel system and are allowed to recover for 24 hours before being studied in the conscious, unrestrained state.
In this assay, plasma ANF levels are determined in the presence and absence of NEP inhibition. On the day of study, all rats are infused continuously with ANF at 450 ng/kg/min. i.v. for the entire 5 hours of the experiment. Sixty minutes after beginning the infusion, blood samples for baseline ANF measurements are obtained (time 0) and the rats are then randomly divided into groups treated with the test compound or vehicle. Additional blood samples are taken 30, 60, 120, 180 and 240 minutes after administration of the test compound.
Plasma concentrations are determined by a specific radioimmunoassay. […] The supermatant is decanted and the pellets counted in a gamma counter. […] Plasma ANF levels are expressed as a percent of those measured in vehicle-treated animals which received ANF alone (450 ng/kg/min i.v.).

[1] = tested on: DOCA-salt hypertensive rats; test: antihypertensive effect in DOCA-salt hypertensive rats; format: in vivo; conditions: DOCA-salt hypertensive rat, 30 mg/kg p.o. in 3% corn starch
Procedure: The antihypertensive effect can be determined in desoxycorticosterone acetate (DOCA)-salt hypertensive rats. DOCA-salt hypertensive rats (280-380 g) are prepared by the standard method. Rats underwent a unilateral nephrectomy and one week later are implanted with silastic pellets containing 100 mg/kg of DOCA. The rats are maintained on 1% NaCl/0.2% KCl drinking water for three to five weeks until sustained hypertension is established. The antihypertensive activity is evaluated at this time. Two days before an experiment, the rats are anesthetized with methoxyflurane and instrumented with catheters in the femoral artery to measure arterial blood pressure. Forty-eight hours later, baseline arterial pressure and heart rate are recorded during a 1 hour period. The test compound (30 mg/kg p.o.) or vehicle is then administered and the same cardiovascular parameters are monitored for an additional 5 hours.

ANF-induced natriuresis = test: potentiation of the natriuretic effect of ANF in anesthetized rats; format: in vivo, rat (male Sprague-Dawley); conditions: rat, 30 mg/kg in polyethylene glycol 400, intraduodenally; ANF 1 μg/kg i.v. bolus
Procedure: The potentiation of the natriuretic effect of ANF can be determined as follows: Male Sprague-Dawley rats (280-360 g) are anesthetized with Inactin (100 mg/kg i.p.) and instrumented with catheters in the femoral artery, femoral vein and urinary bladder to measure arterial pressure, administer ANF and collect urine, respectively. A continuous infusion of normal saline (33 μl/min) is maintained throughout the experiment to promote diuresis and sodium excretion. The experimental protocol consists of an initial 15 minute collection period (designated as pre-control) followed by three additional collection periods. Immediately after completion of the pre-control period, test compound or vehicle is administered; nothing is done for the next 45 minutes. […] At the conclusion of this period, ANF is administered (1 μg/kg i.v. bolus) to all animals and arterial pressure and renal parameters are determined during two consecutive 15 minutes collection periods. Mean arterial pressure, urine flow and urinary sodium excretion are determined for all collection periods. Blood pressure is measured with a Gould p50 pressure transducer, urine flow is determined gravimetrically, sodium concentration is measured by flame photometry, and urinary sodium excretion is calculated as the product of urine flow and urine sodium concentration.

## CC(=O)SC[C@H]1CCCCCC[C@H](C(=O)N2C[C@H](O)C[C@H]2C(=O)OCc2ccccc2)NC1=O [N-[[trans 3-(acetylthiomethyl)-2-oxo-1-azacyclodecan-10-yl]-carbonyl]-trans-4-hydroxy-L-proline benzyl ester]
Plasma ANF
  increase in plasma ANF levels: significant increases in plasma ANF levels
[1]
  reduction in blood pressure: significant reduction in blood pressure
ANF-induced natriuresis
  potentiation of ANF-induced natriuresis: significant potentiation of ANF-induced natriuresis
